Test results reported in paper PMC11243327, “Design, Synthesis, Antitumor, and Antiplasmodial Evaluation of New 7-Chloroquinoline–Benzimidazole Hybrids” (Molecules, 2024).
Where a name gives a salt, the structure may show the parent alone.

What was measured:
[1] = tested on: THP-1 (acute monocytic leukemia); assay: Antiproliferative MTT assay, THP-1; format: cell-based, human; conditions: Homo sapiens, THP-1, 72 h, mean ± SD of three experiments
Experimental: (§1) The effect of the new synthesized compounds was tested on five human tumor cell lines, HeLa (human cervical adenocarcinoma; from ATCC), CaCo-2 (human colorectal adenocarcinoma), HL-60 (acute promyelocytic leukemia), HuT78 (T-cell lymphoma), and THP-1 (acute monocytic leukemia), as well as one non-tumor cell line, MRC-5 (human fetal lung fibroblasts). The MRC-5 cells were used between 24 and 26 passages. The cells were cultured in two different types of media: DMEM (Gibco Thermo Fisher Scinetific Inc., Runcorn, UK) and RPMI 1640 (Gibco, Thermo Fisher Scinetific Inc., UK). Both media were supplemented with 2 mM glutamine, fetal bovine serum (10%; heat inactivated), and antibiotics (100 U penicillin and 0.1 mg streptomycin). RPMI 1640 was additionally supplemented with 10 mM HEPES and 1 mM sodium pyruvate. Cells growing in a monolayer were cultured in DMEM, while cells growing in suspension were cultured in RPMI 1640. Cells were grown in humidified atmosphere under the conditions of 37 °C/5% CO2 gas in a CO2 incubator (IGO 150 CELLlife^TM, JOUAN, Thermo Fisher Scientific, Waltham, MA, USA).
(§2) Growth-inhibitory activity was assessed using a slightly modified procedure based on the National Cancer Institute’s protocol. Briefly, cells were seeded in 96-well microtiter plates and incubated for 24 h. They were then treated with 10^−7 to 10^−4 M concentrations of the tested compounds for an additional 72 h. After the treatment period, the effects of the tested compounds on the growth rate of the cells were examined using the MTT assay. Absorbance was measured at 595 nm using a microplate reader. The IC50 value, which represents a 50% inhibition of cell growth, and QC calculation were performed using the GraphPadPrism software (La Jolla, USA), v. 5.03. and Excel software, Office 365. The selectivity index was calculated according to the following formula: SI=IC50 value of normal cell line/IC50 value of cancer cell line
(§3) The effect of each concentration was analyzed by plotting the logarithm of the concentration of the evaluated compound against the corresponding percentage inhibition value using least squares.

HuT78 (T-cell lymphoma) = assay: Antiproliferative MTT assay, Hut78; format: cell-based, human; conditions: Homo sapiens, HuT78, 72 h, mean ± SD of three experiments
Experimental: as §1, §2, §3

[2] = tested on: CaCo-2 (human colorectal adenocarcinoma); assay: Antiproliferative MTT assay, CaCo-2; format: cell-based; conditions: Homo sapiens, Caco-2, 72 h, mean ± SD of three experiments
Experimental: as §1, §2, §3

[3] = tested on: HL-60 (acute promyelocytic leukemia); assay: Antiproliferative MTT assay, HL-60; format: cell-based, human; conditions: Homo sapiens, HL-60, 72 h, mean ± SD of three experiments
Experimental: as §1, §2, §3

[4] = tested on: P. falciparum Dd2 (multiresistant), erythrocytic stage; assay: Antiplasmodial HRP2 assay, PfDd2; format: cell-based, Plasmodium falciparum; conditions: Plasmodium falciparum, DD2, 72 h; chloroquine-resistant strain, three days incubation, HRP2-ELISA, mean ± SD, n ≥ 2; read-out: IC50 PfDd2
Experimental: (§4) Method used to evaluate the antiplasmodial activity of quinoline–benzimidazole hybrids against two P. falciparum strains, chloroquine-sensitive (Pf3D7) and chloroquine-resistant (PfDd2), was previously described. […] Chloroquine was used as a positive control.
(§5) In brief, 96-well plates were pre-coated with the tested compounds at 1:3 dilution before ring-stage parasites were added to the complete culture medium at a hematocrit of 1.5% and a parasitemia of 0.05%. […] All compounds were analyzed in duplicate in at least two independent experiments. The IC50 was determined by nonlinear regression analysis of the logarithmic concentration-response curves using the drc package v3.0-1 of R v4.1.0 [56].

[5] = tested on: P. falciparum 3D7 (CQ-susceptible), erythrocytic stage; assay: Antiplasmodial HRP2 assay, Pf3D7; format: cell-based, Plasmodium falciparum; conditions: Plasmodium falciparum, 3D7, 72 h; chloroquine-sensitive strain, three days incubation, HRP2-ELISA, mean ± SD, n ≥ 2; read-out: IC50 Pf3D7
Experimental: as §4, §5

[6] = tested on: MRC-5 (human fetal lung fibroblasts); assay: Antiproliferative MTT assay, MRC-5; format: cell-based; conditions: Homo sapiens, MRC5, non-tumor cell line, 72 h, mean ± SD of three experiments
Experimental: as §1, §2, §3

[7] = tested on: HeLa (human cervical adenocarcinoma); assay: Antiproliferative MTT assay, HeLa; format: cell-based; conditions: Homo sapiens, HeLa, 72 h, mean ± SD of three experiments
Experimental: as §1, §2, §3

SMILES | melting point | IC50 [1] [nM] | IC50 (HuT78 (T-cell lymphoma)) [nM] | IC50 [2] [nM] | IC50 [3] [nM] | IC50 [4] [nM] | IC50 [5] [nM] | IC50 [6] [nM] | IC50 [7] [nM]
COc1cc(-c2nc3ccc(C(=N)NC4CCCC4)cc3[nH]2)ccc1OCCCNc1ccnc2cc(Cl)ccc12 (as salt: hydrochloride) [Compound 15d] | 260 °C (dec.) | – | – | – | – | – | – | – | –
Clc1ccc2c(NCCOc3ccc(-c4nc5ccccc5[nH]4)cc3)ccnc2c1 [Compound 10a] | 171 to 173 °C | 2400 ± 200 | 2800 ± 500 | 6100 ± 4900 | 1300 ± 900 | 3.3 ± 0.1 | 2.7 ± 0.2 | 3100 ± 300 | 3400 ± 500
Clc1ccc2c(NCCOc3ccc(-c4nc5ccc(Cl)cc5[nH]4)cc3)ccnc2c1 [Compound 10b, 7-chloro-N-{2-[4-(5(6)-chloro-1H-benzo[d]imidazole-2-yl)phenoxy]ethyl}quinolin-4-amine] | 222 to 224 °C | 3400 ± 800 | 1600 ± 1200 | 1900 ± 200 | 2000 ± 400 | 4.9 ± 0.8 | 3.5 ± 1.5 | 4000 ± 1100 | 2700 ± 200
COc1ccc2nc(-c3ccc(OCCNc4ccnc5cc(Cl)ccc45)cc3)[nH]c2c1 [Compound 10c, 7-chloro-N-{2-[4-(5(6)-methoxy-1H-benzo[d]imidazole-2-yl)phenoxy]ethyl}quinolin-4-amine] | 248 °C (dec.) | 3800 ± 400 | 2300 ± 800 | 1700 ± 100 | 1800 ± 500 | 10.1 ± 5 | 6.8 ± 1.8 | 4900 ± 1700 | 2600 ± 400
Clc1ccc2c(NCCOc3ccc(-c4nc5ccccc5[nH]4)cc3Br)ccnc2c1 [Compound 11a, N-{2-[4-(1H-benzo[d]imidazole-2-yl)-2-bromophenoxy]ethyl}-7-chloroquinolin-4-amine] | 226 to 228 °C | 4900 ± 7300 | 2400 ± 600 | 2100 ± 600 | 300 ± 300 | 8.7 ± 3.4 | 36.9 ± 1.5 | 2200 ± 800 | 2600 ± 200
Clc1ccc2c(NCCOc3ccc(-c4nc5ccc(Cl)cc5[nH]4)cc3Br)ccnc2c1 [Compound 11b, N-{[2-bromo-4-(5(6)-chloro-1H-benzo[d]imidazole-2-yl)phenoxy]ethyl}-7-chloroquinolin-4-amine] | 238 to 240 °C | 4400 ± 5100 | 5800 ± 1900 | 13300 ± 2500 | 1300 ± 900 | 88.3 ± 3.1 | 87.3 ± 3.3 | 3000 ± 900 | 5400 ± 4600
COc1ccc2nc(-c3ccc(OCCNc4ccnc5cc(Cl)ccc45)c(Br)c3)[nH]c2c1 [Compound 11c, N-{[2-bromo-4-(5(6)-methoxy-1H-benzo[d]imidazole-2-yl)phenoxy]ethyl}-7-chloroquinolin-4-amine] | 208 to 210 °C | 3500 ± 7300 | 3000 ± 1100 | 1500 ± 300 | 2200 ± 400 | 28 ± 0.6 | 19.7 ± 4.2 | 5300 ± 2400 | 2500 ± 400
COc1cc(-c2nc3ccccc3[nH]2)ccc1OCCNc1ccnc2cc(Cl)ccc12 [Compound 12a, N-{[4-(1H-benzo[d]imidazole-2-yl)-2-methoxyphenoxy]ethyl}-7-chloroquinolin-4-amine] | 210 to 212 °C | 3000 ± 600 | 4200 ± 2100 | 2000 ± 300 | 2000 ± 300 | 91.2 ± 9.5 | 14.5 ± 4 | 3800 ± 400 | 2200 ± 100
COc1cc(-c2nc3ccc(Cl)cc3[nH]2)ccc1OCCNc1ccnc2cc(Cl)ccc12 [Compound 12b, 7-chloro-N-{[4-(5(6)-chloro-benzo[d]imidazole-2-yl)-2-methoxyphenoxy]ethyl}quinolin-4-amine] | 222 °C | 6100 ± 6900 | 3700 ± 5200 | 4700 ± 4000 | 3300 ± 1100 | 21.5 ± 2.5 | 11.1 ± 0.3 | 3000 ± 1600 | 5600 ± 1300
COc1ccc2nc(-c3ccc(OCCNc4ccnc5cc(Cl)ccc45)c(OC)c3)[nH]c2c1 [Compound 12c, 7-chloro-N-{[4-(5(6)-methoxy-benzo[d]imidazole-2-yl)-2-methoxyphenoxy]ethyl}quinolin-4-amine] | 218 to 219 °C | 3100 ± 800 | 2400 ± 1100 | 2100 ± 300 | 200 | 15.4 ± 2 | 9.7 ± 0.2 | 1100 ± 800 | 2700 ± 200
Clc1ccc2c(NCCCOc3ccc(-c4nc5ccccc5[nH]4)cc3)ccnc2c1 [Compound 13a] | 200 to 202 °C | 3000 ± 800 | 1600 ± 800 | 1100 ± 400 | 400 ± 200 | 4.8 ± 0.3 | 2.6 ± 0.7 | 300 ± 200 | 3000 ± 2300
Clc1ccc2c(NCCCOc3ccc(-c4nc5ccc(Cl)cc5[nH]4)cc3)ccnc2c1 [Compound 13b] | 198 to 200 °C | 2100 ± 700 | 300 ± 200 | 1600 ± 400 | 200 ± 100 | 3.9 ± 1.1 | 2.4 ± 1.4 | 400 ± 100 | 600 ± 100
COc1ccc2nc(-c3ccc(OCCCNc4ccnc5cc(Cl)ccc45)cc3)[nH]c2c1 [Compound 13c] | 212 °C (dec.) | 2600 | 1100 ± 500 | 1000 ± 500 | 300 ± 200 | 11.9 ± 1.6 | 12.8 ± 0.5 | 2700 ± 500 | 200 ± 200
Clc1ccc2c(NCCCOc3ccc(-c4nc5ccc(Cl)cc5[nH]4)cc3Br)ccnc2c1 [Compound 14b, N-{[2-bromo-4-(5(6)-chloro-1H-benzo[d]imidazole-2-yl)phenoxy]propyl}-7-chloroquinolin-4-amine] | 219 to 221 °C | 6800 ± 3500 | 900 ± 600 | 1500 ± 1100 | 400 ± 100 | 14.2 ± 1.2 | 5 ± 1.4 | 2000 ± 1800 | 1500 ± 1000
